In ChEMBL document CHEMBL1201862, “PubChem BioAssay data set” (2004):
Calls of active or inactive are those of the source.

Legend:
[1] = molecular target: Cytochrome P450 2D6 (Homo sapiens, UniProt P10635);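 further: CYP2D6 member of a cytochrome P450 panel assay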
[2] = molecular target: Cytochrome P450 3A4 (Homo sapiens, UniProt P08684);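 further: CYP3A4 tested as one member of a cytochrome P450 panel screen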
[3] = molecular target: Cytochrome P450 2C19 (Homo sapiens, UniProt P33261); experiment: Cytochrome panel assay with activity outcomes. Panel member name: p450-cyp2c19 Compounds with AC50 equal or less than 10 uM are considered active; type: functional
[4] = molecular target: T1, Cytochrome P450 1A2 (Homo sapiens, UniProt P05177);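 further: PubChem cytochrome P450 panel assay, CYP1A2 panel member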
T1 sequence (P05177 whole entry): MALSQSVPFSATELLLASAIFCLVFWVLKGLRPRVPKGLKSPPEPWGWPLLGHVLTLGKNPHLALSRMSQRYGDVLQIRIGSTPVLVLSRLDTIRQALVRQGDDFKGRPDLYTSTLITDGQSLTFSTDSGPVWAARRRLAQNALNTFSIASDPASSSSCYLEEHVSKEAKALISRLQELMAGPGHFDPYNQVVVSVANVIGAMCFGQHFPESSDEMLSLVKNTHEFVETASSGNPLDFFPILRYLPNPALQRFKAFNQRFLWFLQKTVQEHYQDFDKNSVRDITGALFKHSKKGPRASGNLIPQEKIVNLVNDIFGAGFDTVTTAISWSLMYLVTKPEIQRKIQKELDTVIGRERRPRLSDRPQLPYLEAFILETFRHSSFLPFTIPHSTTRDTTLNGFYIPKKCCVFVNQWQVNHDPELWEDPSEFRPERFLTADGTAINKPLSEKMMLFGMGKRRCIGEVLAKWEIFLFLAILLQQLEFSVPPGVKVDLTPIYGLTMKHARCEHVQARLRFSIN

[5] = molecular target: Cytochrome P450 2C9 (Homo sapiens, UniProt P11712)
[6] = molecular target: T2, Protein RecA (Mycobacterium tuberculosis, UniProt P9WHJ3); experiment: Fluorescence Cell-Free Homogeneous Dose Retest to Identify Inhibitors of RecA-Intein Splicing Activity. [Related pubchem assays (depositor defined):AID2097, AID2223, AID489010, AID492950]; type: functional
T2 sequence (P9WHJ3 whole entry): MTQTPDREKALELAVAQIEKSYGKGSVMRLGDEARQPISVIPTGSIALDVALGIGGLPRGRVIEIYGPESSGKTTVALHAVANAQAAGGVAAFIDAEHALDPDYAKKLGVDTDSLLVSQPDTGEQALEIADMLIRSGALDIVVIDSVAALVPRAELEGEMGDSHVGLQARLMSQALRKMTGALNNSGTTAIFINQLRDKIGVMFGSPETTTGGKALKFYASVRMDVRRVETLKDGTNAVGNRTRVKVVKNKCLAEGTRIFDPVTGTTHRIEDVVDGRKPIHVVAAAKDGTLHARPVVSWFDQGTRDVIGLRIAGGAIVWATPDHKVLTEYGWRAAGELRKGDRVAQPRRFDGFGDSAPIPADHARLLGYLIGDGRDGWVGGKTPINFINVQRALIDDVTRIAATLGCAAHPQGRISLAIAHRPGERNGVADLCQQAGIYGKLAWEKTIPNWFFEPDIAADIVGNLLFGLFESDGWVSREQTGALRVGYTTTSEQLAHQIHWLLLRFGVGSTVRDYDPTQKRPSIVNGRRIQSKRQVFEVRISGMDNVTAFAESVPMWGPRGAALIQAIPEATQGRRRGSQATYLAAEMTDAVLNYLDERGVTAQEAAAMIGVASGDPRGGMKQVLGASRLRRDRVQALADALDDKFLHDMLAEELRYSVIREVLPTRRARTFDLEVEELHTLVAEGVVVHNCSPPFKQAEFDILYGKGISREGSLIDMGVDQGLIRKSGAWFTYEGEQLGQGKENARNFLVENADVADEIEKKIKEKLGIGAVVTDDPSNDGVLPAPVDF

[7] = molecular target: T3, Replicative DNA helicase DnaB (Mycobacterium tuberculosis, UniProt P9WMR3); experiment: DnaB intein splicing inhibitors, dose response, biochemical, cell-free fluorescence (AID 449749); type: functional
T3 sequence (P9WMR3 whole entry): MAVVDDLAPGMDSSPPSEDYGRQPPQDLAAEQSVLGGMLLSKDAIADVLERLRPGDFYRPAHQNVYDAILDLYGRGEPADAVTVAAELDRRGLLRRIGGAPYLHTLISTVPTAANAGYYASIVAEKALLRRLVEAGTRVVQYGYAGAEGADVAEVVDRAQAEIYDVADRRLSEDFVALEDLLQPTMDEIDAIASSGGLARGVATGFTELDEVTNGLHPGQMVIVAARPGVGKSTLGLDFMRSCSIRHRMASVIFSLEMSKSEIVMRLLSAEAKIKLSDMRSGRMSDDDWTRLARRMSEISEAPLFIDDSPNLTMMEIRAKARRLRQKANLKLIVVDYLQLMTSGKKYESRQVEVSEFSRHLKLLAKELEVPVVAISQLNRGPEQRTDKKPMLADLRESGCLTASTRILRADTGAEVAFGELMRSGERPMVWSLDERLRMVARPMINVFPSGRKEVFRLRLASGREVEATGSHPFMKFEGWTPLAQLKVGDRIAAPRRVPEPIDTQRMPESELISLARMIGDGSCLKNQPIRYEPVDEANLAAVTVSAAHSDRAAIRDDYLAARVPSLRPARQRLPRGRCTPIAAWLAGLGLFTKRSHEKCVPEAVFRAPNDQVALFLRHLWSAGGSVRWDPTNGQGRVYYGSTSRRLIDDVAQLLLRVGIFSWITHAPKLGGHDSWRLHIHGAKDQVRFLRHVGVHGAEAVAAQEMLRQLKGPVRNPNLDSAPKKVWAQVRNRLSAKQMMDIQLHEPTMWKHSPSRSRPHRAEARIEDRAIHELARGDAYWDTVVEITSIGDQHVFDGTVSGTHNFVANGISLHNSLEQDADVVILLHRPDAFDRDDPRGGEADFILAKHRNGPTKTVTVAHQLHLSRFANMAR

[8] = molecular target: T4, Heat shock factor protein 1 (Mus musculus, UniProt P38532); experiment: decrease of HSF1-responsive luciferase luminescence – cell-based, NIH3T3, dose retest, confirmation (AID 2382); type: functional;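 further: NIH3T3 fibroblasts with HSF1-driven luciferase reporter stressed by proteasome inhibitor MG132; luminescence from HSF1-driven luciferase expression after 8 hours of MG132 stress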
T4 sequence (P38532 whole entry): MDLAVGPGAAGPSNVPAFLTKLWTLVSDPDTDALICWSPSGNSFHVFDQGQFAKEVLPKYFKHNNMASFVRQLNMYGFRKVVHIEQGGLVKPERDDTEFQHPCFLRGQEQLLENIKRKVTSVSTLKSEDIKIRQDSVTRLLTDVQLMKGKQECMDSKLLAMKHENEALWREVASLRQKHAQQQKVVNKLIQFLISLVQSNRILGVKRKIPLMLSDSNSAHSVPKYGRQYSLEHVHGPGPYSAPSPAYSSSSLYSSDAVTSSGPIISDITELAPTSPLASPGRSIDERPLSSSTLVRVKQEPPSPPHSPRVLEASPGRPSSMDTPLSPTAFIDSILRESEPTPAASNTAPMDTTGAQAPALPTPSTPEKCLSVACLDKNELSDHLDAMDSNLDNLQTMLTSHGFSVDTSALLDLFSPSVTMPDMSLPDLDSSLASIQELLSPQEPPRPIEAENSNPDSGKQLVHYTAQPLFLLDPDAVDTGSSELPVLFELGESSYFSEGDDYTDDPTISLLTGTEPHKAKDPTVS

[9] = fluconazole-exposed Candida albicans growth modulators – fluorescence, retest, confirmation (AID 2467); type: functional, cell-based

Chain of Cytochrome P450 3A4 (P08684 whole entry): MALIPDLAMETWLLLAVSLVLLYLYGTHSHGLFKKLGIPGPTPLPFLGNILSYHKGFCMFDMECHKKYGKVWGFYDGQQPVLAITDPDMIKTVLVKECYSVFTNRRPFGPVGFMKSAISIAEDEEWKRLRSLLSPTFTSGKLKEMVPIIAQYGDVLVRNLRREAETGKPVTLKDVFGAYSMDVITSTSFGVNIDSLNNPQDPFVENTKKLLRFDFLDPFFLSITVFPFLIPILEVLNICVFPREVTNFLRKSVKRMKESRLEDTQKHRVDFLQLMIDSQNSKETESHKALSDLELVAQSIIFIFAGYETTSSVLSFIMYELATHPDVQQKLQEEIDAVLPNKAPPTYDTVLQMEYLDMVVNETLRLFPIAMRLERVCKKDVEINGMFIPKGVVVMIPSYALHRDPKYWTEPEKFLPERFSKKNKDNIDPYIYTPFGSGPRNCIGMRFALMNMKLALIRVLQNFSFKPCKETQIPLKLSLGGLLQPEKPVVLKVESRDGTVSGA
Chain of Cytochrome P450 2C19 (P33261 whole entry): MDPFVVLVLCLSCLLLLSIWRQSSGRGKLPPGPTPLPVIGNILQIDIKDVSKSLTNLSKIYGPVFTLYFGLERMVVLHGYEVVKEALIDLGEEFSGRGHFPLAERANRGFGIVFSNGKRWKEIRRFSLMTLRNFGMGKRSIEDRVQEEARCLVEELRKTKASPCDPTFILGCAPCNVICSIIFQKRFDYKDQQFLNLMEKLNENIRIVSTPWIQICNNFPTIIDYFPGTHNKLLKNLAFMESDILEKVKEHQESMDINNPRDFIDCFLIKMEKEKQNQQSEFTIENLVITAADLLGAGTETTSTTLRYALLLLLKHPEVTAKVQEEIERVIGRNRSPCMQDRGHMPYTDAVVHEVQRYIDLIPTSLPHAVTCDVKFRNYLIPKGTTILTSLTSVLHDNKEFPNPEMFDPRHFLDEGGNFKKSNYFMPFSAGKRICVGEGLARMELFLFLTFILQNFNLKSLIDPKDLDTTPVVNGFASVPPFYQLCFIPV
Chain of Cytochrome P450 2D6 (P10635 whole entry): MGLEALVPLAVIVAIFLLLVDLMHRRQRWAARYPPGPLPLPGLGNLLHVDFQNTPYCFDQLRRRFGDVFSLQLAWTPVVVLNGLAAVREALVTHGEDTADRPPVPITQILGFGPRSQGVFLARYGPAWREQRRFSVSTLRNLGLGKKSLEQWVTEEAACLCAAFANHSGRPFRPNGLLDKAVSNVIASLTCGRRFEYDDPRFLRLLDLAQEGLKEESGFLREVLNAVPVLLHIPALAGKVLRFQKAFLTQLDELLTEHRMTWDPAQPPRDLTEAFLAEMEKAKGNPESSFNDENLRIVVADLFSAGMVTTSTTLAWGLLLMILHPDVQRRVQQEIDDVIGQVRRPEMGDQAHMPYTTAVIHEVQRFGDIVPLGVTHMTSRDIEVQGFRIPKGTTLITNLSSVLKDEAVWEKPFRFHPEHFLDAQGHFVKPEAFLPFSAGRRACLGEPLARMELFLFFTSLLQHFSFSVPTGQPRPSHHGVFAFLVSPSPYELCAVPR
Chain of Cytochrome P450 2C9 (P11712 whole entry): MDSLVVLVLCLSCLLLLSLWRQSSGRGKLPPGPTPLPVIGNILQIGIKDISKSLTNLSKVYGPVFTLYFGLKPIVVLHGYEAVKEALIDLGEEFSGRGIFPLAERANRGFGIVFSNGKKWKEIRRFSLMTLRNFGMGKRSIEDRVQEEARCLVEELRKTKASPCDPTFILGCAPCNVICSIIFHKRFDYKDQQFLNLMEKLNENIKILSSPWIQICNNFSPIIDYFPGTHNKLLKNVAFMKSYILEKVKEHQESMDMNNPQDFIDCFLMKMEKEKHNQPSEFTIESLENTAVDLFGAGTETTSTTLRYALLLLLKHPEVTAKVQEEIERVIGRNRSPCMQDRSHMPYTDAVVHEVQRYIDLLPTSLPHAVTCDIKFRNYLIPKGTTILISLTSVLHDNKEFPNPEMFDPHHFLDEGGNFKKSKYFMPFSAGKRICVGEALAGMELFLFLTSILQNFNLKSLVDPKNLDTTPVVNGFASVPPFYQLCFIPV

SMILES	AC50 [1]	AC50 ([3]; read-out: AC50)	AC50 [4]	also measured
CN(Cc1ccco1)C(=O)C1CCC(=O)N1Cc1ccc(F)cc1 (stereo not drawn)	25.1 µM (inconclusive)			
CS(=O)(=O)N1CCC2(CCCN(c3ccccn3)C2)CC1	25.1 µM (inconclusive)	15.8 µM (inconclusive)	25.1 µM (inconclusive)	AC50 [2]: 15.8 µM (inconclusive)
N#CCCSC(=S)[C@H]1CCCC1=N		5.01 µM (inconclusive)		AC50 [2]: 2.51 µM (inconclusive)
FC(F)(F)c1ccccc1-c1nc(NC2CC2)c2ccccc2n1	31.6 µM (inconclusive)	10 µM (inconclusive)		
CN1CCN(c2ncc3nc(-c4cn(C)c5ccccc45)c(=O)n(CCC#N)c3n2)CC1	39.8 µM (inconclusive)	39.8 µM (inconclusive)		AC50 [2]: 25.1 µM (inconclusive); AC50 [5]: 39.8 µM (inconclusive)
COc1ccc(-c2cc(C(F)(F)F)n3nc(C(=O)NCc4ccco4)c(Cl)c3n2)cc1		1.78 µM (inconclusive)		AC50 [2]: 3.16 µM (inconclusive)
CCOc1cc(/C=C(\C#N)C(=O)Nc2cccc(C(=O)O)c2)cc(Br)c1OC(=O)c1ccc(OC)cc1				EC50 [6]: 13.2 µM (active); AC50 [7]: 4.04 µM (active)
C/C=C(\C)C(=O)O[C@@H]1C(C)=C2[C@H]([C@@H]1OC(=O)CCCCCCC)[C@@](C)(OC(C)=O)C[C@@H](OC(=O)CCC)[C@@]1(O)[C@H]2OC(=O)[C@]1(C)O	39.8 µM (inconclusive)		39.8 µM (inconclusive)	
CCOc1cc(/C=C2\C(=N)N3N=C(S(=O)(=O)CC)SC3=NC2=O)ccc1OC(=O)c1ccco1				EC50 [6]: 22.1 µM (active); AC50 [7]: > 380 µM (inactive)
O=C1c2ccccc2CC[C@H]1CNCCc1ccc(O)cc1		31.6 µM (inconclusive)		AC50 [2]: 7.94 µM (inconclusive); AC50 [5]: 39.8 µM (inconclusive)
CCOc1ccc(C(=O)C2=C(O)C(=O)N(CCCn3ccnc3)C2c2cccs2)cc1Cl (stereo not drawn)	14.1 µM (inconclusive)			EC50 [8]: > 195 µM (not active)
c1nc(NC2CCNCC2)c2cc(-c3ccc4c(c3)OCO4)ccc2n1	20 µM (inconclusive)			
Cc1ccc(S(=O)(=O)O[C@H]2CN3CCC2CC3)cc1	3.98 µM (inconclusive)			
O=C(c1ccccc1)[C@H]1[C@H](c2ccccc2[N+](=O)[O-])N1C1CCCCC1 (stereo partly drawn)			0.631 µM (inconclusive)	AC50 [2]: 3.98 µM (inconclusive)
CCOC(=O)C1CCCN(C(=O)CCn2nc(-c3ccccc3)ccc2=O)C1 (stereo not drawn)				AC50 [2]: 17.8 µM (inconclusive); AC50 [5]: 31.6 µM (inconclusive)
CNC(=O)/C=C1\NC(C)(C)Cc2c1ccc1ccccc21				AC50 [2]: 15.8 µM (inconclusive); AC50 [5]: 5.01 µM (inconclusive)
C[S+]([O-])c1ccccc1-c1nc(-c2cc(C(F)(F)F)cc(C(F)(F)F)c2)no1 (stereo not drawn)		8.91 µM (inconclusive)	2.24 µM (inconclusive)	AC50 [5]: 17.8 µM (inconclusive)
CN(C)Cc1ccccc1-c1cncnc1NCc1cccnc1			12.6 µM (inconclusive)	

SMILES	AC50 [1]	AC50 ([3]; read-out: AC50)	AC50 [4]	also measured
O=[N+]([O-])c1ccc2c(/N=N\c3ccc4ccccc4c3O)c(O)cc(S(=O)(=O)O)c2c1	0.631 µM (inconclusive)	2.51 µM (inconclusive)		AC50 [2]: 3.98 µM (inconclusive)
Cc1[nH]c2ccccc2c1C(c1ccccn1)N1CCC(C)CC1 (stereo not drawn)	25.1 µM (inconclusive)			
Nc1ccc(SCCN2C(=O)c3ccccc3C2=O)cc1				EC50 [9]: > 38 µM (not active)
Cc1cc(C)c(S(C)(=O)=O)c(Oc2cccc(C(F)(F)F)c2)n1				EC50 [6]: > 380 µM (inactive); AC50 [7]: 213 µM (active)
COc1cccc(C(=O)O/N=C(\N)c2ccc([N+](=O)[O-])cc2)c1OC				EC50 [6]: > 380 µM (inactive); AC50 [7]: > 380 µM (inactive)
Cc1c(-c2c(C#N)c(N)nc3c2CCCCCC3)cnn1C			35.5 µM (inconclusive)	AC50 [5]: 22.4 µM (inconclusive)
Cn1ncc([N+](=O)[O-])c1C(=O)Nc1ccc2c(c1)OCCO2	12.6 µM (inconclusive)	0.0355 µM (inconclusive)		AC50 [5]: 11.2 µM (inconclusive)
CC(=O)c1cccc(NC(=O)Oc2ccccc2)c1			28.2 µM (inconclusive)	AC50 [3]: inconclusive
CC1=C[N+](=O)c2ccccc2[N+]1=O			6.31 µM (inconclusive)	
CN1CCCC[C@@H]1CCN1CCCCC1			0.01 µM (inconclusive)	
CCCCN(c1ccccc1)c1ncnc2c1cnn2C			0.631 µM (inconclusive)	
Cc1nc2ccccc2cc1C[N+]12CN3CN(CN(C3)C1)C2			0.631 µM (inconclusive)	
Cn1cc(C(=O)N/N=C/C(Br)=C\c2ccccc2)ccc1=O		28.2 µM (inconclusive)	3.55 µM (inconclusive)	
C/C(CC(=O)Nc1cc(C)ccn1)=N\NC(=O)C(=O)NC(C)C				EC50 [6]: 4.48 µM (active); AC50 [7]: 19.6 µM (active)
C/C(=C\C(=O)c1ccc(Cl)cc1)NCc1ccc2c(c1)OCO2	5.01 µM (inconclusive)			AC50 [2]: 0.794 µM (inconclusive)
COc1ccccc1CNc1ncnc2ccc(-c3ccc(C(=O)N(C)C)cc3)cc12	39.8 µM (inconclusive)	20 µM (inconclusive)		
CCCCCCCCC(=O)NCc1ccc(O)c(OC)c1 [NONIVAMIDE]	25.1 µM (inconclusive)	7.94 µM (inconclusive)		
